Molecules are shown by their SMILES.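 1) Cells in 96-well plates. 2) Compound, 48 h, 5 concentrations. 3) Linear interpolation between surrounding doses. 4) Unreached endpoint = highest concentration. TGI: total growth inhibition.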

In PubChem BioAssay (NCI) one finds TGI data, which are given here for ten molecules.

One experiment concerns NCI/ADR-RES ovarian. Description: DTP human tumour cell line panel, 48 h.
The molecule `O=C(NCCN1CCOCC1)c1ccc2cc(C(=O)N3CC(CCl)c4ccc([N+](=O)[O-])cc43)[nH]c2c1` (stereo not given) returned a TGI of over 100 µM.

Turning to `COc1ccc(C#CC(=O)O)c(OC)c1`, the TGI is over 100 µM.

In the case of `O=c1c2cc3c(cc2[nH]c2ncccc12)OCO3`, the TGI is over 10 µM.

`Cc1csc(-c2cn(C)c3c2C(=O)C(N)=CC3=O)n1` returned a TGI of over 100 µM.

In turn, `Nc1c(-c2cccc3ccccc23)c2ccc([N+](=O)[O-])cc2c(=O)n1-c1nc2ccccc2s1` had a TGI of 10.5 µM.

Turning to `CC1CC[C@@]2(OC1)OC1C[C@H]3[C@@H]4CC[C@H]5CC(OC6OC(CO)C(OC7OC(CO)C(O)C(O)C7OC7OC(CO)C(O)C(O)C7O)C(O)C6O)CCC5(C)[C@H]4CCC3(C)C1[C@@H]2C` (stereo not given in full), the total growth inhibition concentration (TGI) is 13.8 µM.

Molecule `C/C=C/C=C/c1nc(C#N)c(N)o1` showed a TGI of over 100 µM.

Turning to `CC(C)COP(=O)(OCC(C)C)C(NS(=O)(=O)c1ccccc1)(C(F)(F)F)C(F)(F)F`, the concentration for total growth inhibition (TGI) was determined as 23.6 µM. This counts as double-digit micromolar.

In the case of `CN(C)CCCN1C(=S)N(CCCN(C)C)c2c3cc(O)ccc3nc3c([N+](=O)[O-])ccc1c23`, the TGI was found to be 22.4 µM.

`COc1cc(C2SCC(=O)N2c2ccc(NC(=O)c3ccc(N4C(=O)CSC4c4cc(OC)c(OC)c(OC)c4)cc3)cc2)cc(OC)c1OC` (stereo not given): the TGI is 70.6 µM.

For another experiment, the system named is COLO 205 colon. Kind of experiment: DTP human tumour cell line panel, 48 h.
As for `O=C(NCCN1CCOCC1)c1ccc2cc(C(=O)N3CC(CCl)c4ccc([N+](=O)[O-])cc43)[nH]c2c1` (stereo not given), the TGI was over 100 µM.

`COc1ccc(C#CC(=O)O)c(OC)c1`: the TGI is over 100 µM.

In turn, `O=c1c2cc3c(cc2[nH]c2ncccc12)OCO3` had a TGI of over 10 µM.

The molecule `Cc1csc(-c2cn(C)c3c2C(=O)C(N)=CC3=O)n1` registered a TGI of over 100 µM.

Molecule `Nc1c(-c2cccc3ccccc23)c2ccc([N+](=O)[O-])cc2c(=O)n1-c1nc2ccccc2s1` yielded a TGI of over 100 µM.

Turning to `CC1CC[C@@]2(OC1)OC1C[C@H]3[C@@H]4CC[C@H]5CC(OC6OC(CO)C(OC7OC(CO)C(O)C(O)C7OC7OC(CO)C(O)C(O)C7O)C(O)C6O)CCC5(C)[C@H]4CCC3(C)C1[C@@H]2C` (stereo not given in full), the TGI came out at 1.77 µM.

`C/C=C/C=C/c1nc(C#N)c(N)o1` showed a total growth inhibition concentration (TGI) of over 100 µM.

On to `CC(C)COP(=O)(OCC(C)C)C(NS(=O)(=O)c1ccccc1)(C(F)(F)F)C(F)(F)F`, for which the total growth inhibition concentration (TGI) stood at 3.94 µM.

Molecule `CN(C)CCCN1C(=S)N(CCCN(C)C)c2c3cc(O)ccc3nc3c([N+](=O)[O-])ccc1c23` showed a TGI of 15.9 µM.

For `COc1cc(C2SCC(=O)N2c2ccc(NC(=O)c3ccc(N4C(=O)CSC4c4cc(OC)c(OC)c(OC)c4)cc3)cc2)cc(OC)c1OC` (stereo not given), the total growth inhibition concentration (TGI) is over 100 µM.

For the next experiment, the system named is CCRF-CEM leukemia. Kind of experiment: DTP human tumour cell line panel, 48 h.
`O=C(NCCN1CCOCC1)c1ccc2cc(C(=O)N3CC(CCl)c4ccc([N+](=O)[O-])cc43)[nH]c2c1` (stereo not given) came in with a TGI of over 100 µM.

`COc1ccc(C#CC(=O)O)c(OC)c1` returned a TGI of over 100 µM.

`O=c1c2cc3c(cc2[nH]c2ncccc12)OCO3` registered a TGI of over 10 µM.

Molecule `Cc1csc(-c2cn(C)c3c2C(=O)C(N)=CC3=O)n1` came in with a total growth inhibition concentration (TGI) of over 100 µM.

`Nc1c(-c2cccc3ccccc23)c2ccc([N+](=O)[O-])cc2c(=O)n1-c1nc2ccccc2s1` returned a TGI of over 100 µM.

The molecule `CC1CC[C@@]2(OC1)OC1C[C@H]3[C@@H]4CC[C@H]5CC(OC6OC(CO)C(OC7OC(CO)C(O)C(O)C7OC7OC(CO)C(O)C(O)C7O)C(O)C6O)CCC5(C)[C@H]4CCC3(C)C1[C@@H]2C` (stereo not given in full) showed a total growth inhibition concentration (TGI) of 4.1 µM.

Turning to `C/C=C/C=C/c1nc(C#N)c(N)o1`, the TGI is over 100 µM.

Molecule `CC(C)COP(=O)(OCC(C)C)C(NS(=O)(=O)c1ccccc1)(C(F)(F)F)C(F)(F)F` returned a total growth inhibition concentration (TGI) of 36.6 µM. In other words, the double-digit micromolar range.

Molecule `CN(C)CCCN1C(=S)N(CCCN(C)C)c2c3cc(O)ccc3nc3c([N+](=O)[O-])ccc1c23` displayed a TGI of 19 µM.

`COc1cc(C2SCC(=O)N2c2ccc(NC(=O)c3ccc(N4C(=O)CSC4c4cc(OC)c(OC)c(OC)c4)cc3)cc2)cc(OC)c1OC` (stereo not given): the concentration for total growth inhibition (TGI) was over 100 µM.

The test system of the next experiment is NCI-H23 lung. Kind of experiment: DTP human tumour cell line panel, 48 h.
For the molecule `O=C(NCCN1CCOCC1)c1ccc2cc(C(=O)N3CC(CCl)c4ccc([N+](=O)[O-])cc43)[nH]c2c1` (stereo not given), the TGI was over 100 µM.

As to `COc1ccc(C#CC(=O)O)c(OC)c1`, the TGI was over 100 µM.

Consider `O=c1c2cc3c(cc2[nH]c2ncccc12)OCO3`, for which the total growth inhibition concentration (TGI) was over 10 µM.

Turning to `Cc1csc(-c2cn(C)c3c2C(=O)C(N)=CC3=O)n1`, the concentration for total growth inhibition (TGI) was over 30 µM.

For the molecule `Nc1c(-c2cccc3ccccc23)c2ccc([N+](=O)[O-])cc2c(=O)n1-c1nc2ccccc2s1`, the TGI was over 100 µM.

For the molecule `CC1CC[C@@]2(OC1)OC1C[C@H]3[C@@H]4CC[C@H]5CC(OC6OC(CO)C(OC7OC(CO)C(O)C(O)C7OC7OC(CO)C(O)C(O)C7O)C(O)C6O)CCC5(C)[C@H]4CCC3(C)C1[C@@H]2C` (stereo not given in full), the TGI amounted to 10.7 µM.

As to `C/C=C/C=C/c1nc(C#N)c(N)o1`, the TGI is over 100 µM.

The molecule `CC(C)COP(=O)(OCC(C)C)C(NS(=O)(=O)c1ccccc1)(C(F)(F)F)C(F)(F)F` registered a TGI of 14.2 µM.

`CN(C)CCCN1C(=S)N(CCCN(C)C)c2c3cc(O)ccc3nc3c([N+](=O)[O-])ccc1c23`: the concentration for total growth inhibition (TGI) came to 17.1 µM.

The molecule `COc1cc(C2SCC(=O)N2c2ccc(NC(=O)c3ccc(N4C(=O)CSC4c4cc(OC)c(OC)c(OC)c4)cc3)cc2)cc(OC)c1OC` (stereo not given) came in with a TGI of over 100 µM.

A further experiment relates to OVCAR-4 ovarian. Description: DTP human tumour cell line panel, 48 h.
For `O=C(NCCN1CCOCC1)c1ccc2cc(C(=O)N3CC(CCl)c4ccc([N+](=O)[O-])cc43)[nH]c2c1` (stereo not given), the total growth inhibition concentration (TGI) came out at 32.6 µM. That is a double-digit micromolar value.

`COc1ccc(C#CC(=O)O)c(OC)c1` came in with a TGI of over 100 µM.

For `O=c1c2cc3c(cc2[nH]c2ncccc12)OCO3`, the total growth inhibition concentration (TGI) was over 10 µM.

Molecule `Cc1csc(-c2cn(C)c3c2C(=O)C(N)=CC3=O)n1` displayed a total growth inhibition concentration (TGI) of over 100 µM.

On to `Nc1c(-c2cccc3ccccc23)c2ccc([N+](=O)[O-])cc2c(=O)n1-c1nc2ccccc2s1`, for which the TGI was over 53.5 µM.

The molecule `CC1CC[C@@]2(OC1)OC1C[C@H]3[C@@H]4CC[C@H]5CC(OC6OC(CO)C(OC7OC(CO)C(O)C(O)C7OC7OC(CO)C(O)C(O)C7O)C(O)C6O)CCC5(C)[C@H]4CCC3(C)C1[C@@H]2C` (stereo not given in full) showed a TGI of 2.72 µM. This lies in the single-digit micromolar range.

As to `C/C=C/C=C/c1nc(C#N)c(N)o1`, the TGI is over 100 µM.

`CC(C)COP(=O)(OCC(C)C)C(NS(=O)(=O)c1ccccc1)(C(F)(F)F)C(F)(F)F` came in with a total growth inhibition concentration (TGI) of 13.5 µM.

On to `CN(C)CCCN1C(=S)N(CCCN(C)C)c2c3cc(O)ccc3nc3c([N+](=O)[O-])ccc1c23`, for which the total growth inhibition concentration (TGI) was 10.9 µM.

In the case of `COc1cc(C2SCC(=O)N2c2ccc(NC(=O)c3ccc(N4C(=O)CSC4c4cc(OC)c(OC)c(OC)c4)cc3)cc2)cc(OC)c1OC` (stereo not given), the TGI is over 100 µM.
